These are literature values, as cited in patent publication US20050025723A1, “Sunburn treatment and sunburn prevention method” (priority 2000, published 2005).

Entries after “also recorded” stand apart in the source; their conditions may differ.

For one series, the system named is fever. Particulars: compared with parent peptide α-MSH or α-MSH(11-13); literature statements.
Another series deals with inflammation. Particulars: in vitro and in vivo; compared with parent molecule or the L-form tripeptide; literature statements.
A further series concerns learning and memory. Particulars: in vivo.
The subject of series [1] is melanocytes and melanoma cells.

For “8-13 sequence: α-MSH 8-13 sequence (RWGKPV; Designed polypeptide with anti-inflammatory, anti-bacterial, anti-fungal and antipyretic properties.)”, the “antipyretic potency / activity (reducing fever)” value in the series with fever was “greater than that of the 11-13 sequence”.

For “9-13 sequence: α-MSH 9-13 sequence (WGKPV; C-terminal sequences of alpha-MSH)”, the “antipyretic potency / activity (reducing fever)” value with fever is listed as “almost devoid of activity”.

“10-13 sequence: α-MSH 10-13 sequence formed by addition of glycine to α-MSH(11-13) (GKPV; Designed polypeptide with anti-inflammatory, anti-bacterial, anti-fungal and antipyretic properties.)”: in the series on fever, the “antipyretic potency / activity (reducing fever)” value was “slightly decreased potency”.

For the substance Ac-[D-K11]-α-MSH 11-13-NH2, the “anti-inflammatory activity / potency” value with inflammation is reported as “same general potency as the L-form of the tripeptide”.

For the substance MEHFRWG [α-MSH sequence (4-10)], in the series with learning and memory, the “learning and memory behavioral effects” value was “has learning and memory behavioral effects”. Also, the “antipyretic potency / activity (reducing fever)” value in the series with fever was “little”. The “anti-inflammatory activity / potency” value in the series with inflammation was “little”.

[Nle^4,D-Phe^7]α-MSH: the “biological activity on melanocytes and melanoma cells” value in series [1] is given as “marked biological activity”. For the same substance, the “antipyretic potency / activity (reducing fever)” value in the series with fever is “approximately ten times more potent than the parent peptide”.

As for lysine-proline-valine [KPV], the “antipyretic potency / activity (reducing fever)” value in the series with fever is on record as “parallel those of the parent molecule”. For the same substance, the “anti-inflammatory activity / potency” value with inflammation is “parallel those of the parent molecule; also recorded: effective over a very broad range of concentrations, including picomolar concentrations”.
